Laboratory results reported in patent publication US11554122B2, “Fused pentacyclic imidazole derivatives as modulators of TNF activity” (UCB Biopharma SRL, priority 2018, dated 2023).

These compounds were tested against T1, TNFα (Homo sapiens, UniProt P01375) (assay: TNF human whole blood screening assay: CD11b expression on granulocytes after zymosan challenge). Conditions: whole blood IC50 multiplied by the unbound fraction (Fu) in human blood; read-out: free IC50 in the human whole blood assay.
T1 construct: a human whole blood assay driven by endogenously expressed TNFα; endogenous in cells; host or cells: EDTA anticoagulated human whole blood, stimulated with 1 ug/ml zymosan
T1 sequence (P01375 77-233 limits assumed): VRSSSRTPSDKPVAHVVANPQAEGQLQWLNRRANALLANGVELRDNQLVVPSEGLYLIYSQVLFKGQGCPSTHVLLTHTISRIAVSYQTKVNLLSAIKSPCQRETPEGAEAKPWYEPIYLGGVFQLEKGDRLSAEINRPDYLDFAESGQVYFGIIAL
Type: cell-based
Protocol: Furthermore, the compounds in accordance with the present invention are potent inhibitors of CD11b expressed on granulocytes in human blood cells, when tested in the human whole blood assay as described herein.
TNF Human Whole Blood Screening Assay
The compounds according to the Examples were assessed in a human whole blood assay driven by endogenously expressed TNFα by measuring the expression of CD11b on granulocytes in human whole blood challenged with zymosan. Zymosan binds to TLR2 and other receptors, leading to NF-κB signalling which in turn induces the production of pro-inflammatory mediators, including TNFα. In turn, TNFα can stimulate the expression of CD11b on granulocytes.
Compounds were diluted from 10 mM DMSO stocks (final assay concentration of 0.2% DMSO) to generate a 10-point 2.5-fold serial dilution curve (for example, 20,000 nM to 5.3 nM final assay concentration). Diluted compound was preincubated with EDTA anticoagulated human whole blood for 60 minutes at 37° C. prior to stimulation with 1 ug/ml zymosan. After 3 hours stimulation with zymosan, the whole blood was stained with fluorescent labelled anti CD45 and anti CD11b antibodies. The samples were fixed and red blood cells lysed before analysis with a FACS CANTO II.
FACS (Fluoresceence Activated Cell Sorting) analysis was performed with FloJo software. SSC-A (Side Scatter Area of peak) and CD45 signal was used to identify granulocytes, followed by SSC-A and SSC-W (Side Scatter Width of peak) to select single cells. MESF (Molecules of Equivalent Soluble Fluorochrome) beads were used to calibrate the CD11b signal on single cell granulocytes. Activation of CD11b was inhibited in a dose dependent manner by the TNFα inhibitor.
Percentage inhibition of compounds was calculated against TNFα containing DMSO alone (control) and maximum inhibition generated with excess blocking anti-TNFα monoclonal antibody. An inhibition curve was constructed in ActivityBase using a 4 parameter logistic model (XLfit™). The point of inflexion between the fitted minimum and maximum effects of the inhibitor gives the IC50 value.
A calculated IC50 for the free compound (herein referred to as “free IC50”) that takes into account the extent of fraction unbound in blood was determined by multiplying the IC50 generated from the first assay (human whole blood screening assay) by the unbound fraction (Fu), generated from the second assay (human blood binding assay).
Compound `[2H]C([2H])([2H])N1C(=O)c2cccc(OC(F)F)c2[C@H]2C[C@@H]1c1nc3ccc(-c4cnc([C@]5(O)C[C@@](C)(C#N)C5)nc4)cc3n12` [Example 1, 3-[5-[(1R,11R)-18-(difluoromethoxy)-13-oxo-12-(trideuteriomethyl)-2,9,12-triazapentacyclo[9.8.1.02,10.03,8.014,19]icosa-3(8),4,6,9,14(19),15,17-heptaen-5-yl]pyrimidin-2-yl]-3-hydroxy-1-methylcyclobutane-1-carbonitrile] has an IC50 of roughly 6 nM. `C[C@]1(C#N)C[C@](O)(c2ncc(-c3ccc4nc5n(c4c3)[C@@H]3C[C@H]5NC(=O)c4cccc(OC(F)F)c43)cn2)C1` [Example 2, 3-[5-[(1R,11R)-18-(difluoromethoxy)-13-oxo-2,9,12-triazapentacyclo[9.8.1.02,10.03,8.014,19]icosa-3(8),4,6,9,14(19),15,17-heptaen-5-yl]pyrimidin-2-yl]-3-hydroxy-1-methylcyclobutane-1-carbonitrile] gave an IC50 of roughly 12 nM. With `CN1C(=O)c2cccc(OC(F)F)c2[C@H]2C[C@@H]1c1nc3ccc(-c4cnc([C@]5(C#N)C[C@@](C)(O)C5)nc4)cc3n12` [Example 6, 1-[5-[(1R,11R)-18-(difluoromethoxy)-12-methyl-13-oxo-2,9,12-triazapentacyclo[9.8.1.02,10.03,8.014,19]icosa-3(8),4,6,9,14(19),15,17-heptaen-5-yl]pyrimidin-2-yl]-3-hydroxy-3-methylcyclobutane-1-carbonitrile] the IC50 was less than 4 nM. For `CN1C(=O)c2cccc(OC(F)F)c2[C@H]2C[C@@H]1c1nc3ccc(-c4cnc([C@]5(O)C[C@@](C)(C#N)C5)c(F)c4)cc3n12` [Example 4, 3-[5-[(1R,11R)-18-(difluoromethoxy)-12-methyl-13-oxo-2,9,12-triazapentacyclo[9.8.1.02,10.03,8.014,19]icosa-3,5,7,9,14(19),15,17-heptaen-5-yl]-3-fluoropyridin-2-yl]-3-hydroxy-1-methylcyclobutane-1-carbonitrile], the IC50 was less than 4 nM. For `C[C@]1(C#N)C[C@](O)(c2ncc(-c3cc4c(cc3F)nc3n4[C@@H]4C[C@H]3NC(=O)c3cccc(OC(F)F)c34)cn2)C1` [Example 3, 3-[5-[(1R,11R)-18-(difluoromethoxy)-6-fluoro-13-oxo-2,9,12-triazapentacyclo[9.8.1.02,10.03,8.014,19]icosa-3(8),4,6,9,14(19),15,17-heptaen-5-yl]pyrimidin-2-yl]-3-hydroxy-1-methylcyclobutane-1-carbonitrile], the IC50 was roughly 6 nM. For `C[C@]1(C#N)C[C@](O)(c2ncc(-c3ccc4nc5n(c4c3)[C@@H]3C[C@H]5NC(=O)c4cccc(OC(F)F)c43)cc2F)C1` [Example 5, 3-[5-[(1R,11R)-18-(difluoromethoxy)-13-oxo-2,9,12-triazapentacyclo[9.8.1.02,10.03,8.014,19]icosa-3,5,7,9,14(19),15,17-heptaen-5-yl]-3-fluoropyridin-2-yl]-3-hydroxy-1-methylcyclobutane-1-carbonitrile], the IC50 was roughly 5 nM. Work on `CN1C(=O)c2cccc(OC(F)F)c2[C@H]2C[C@@H]1c1nc3ccc(-c4cnc([C@]5(C#N)C[C@@](C)(O)C5)c(F)c4)cc3n12` [Example 7, 1-[5-[(1R,11R)-18-(difluoromethoxy)-12-methyl-13-oxo-2,9,12-triazapentacyclo[9.8.1.02,10.03,8.014,19]icosa-3(8),4,6,9,14(19),15,17-heptaen-5-yl]-3-fluoropyridin-2-yl]-3-hydroxy-3-methylcyclobutane-1-carbonitrile] yielded an IC50 of less than 4 nM.
